Here are results for two compounds from patent US12280072B2, “Oligosaccharide compound for inhibiting intrinsic coagulation factor X-enzyme complex, and preparation method therefor and uses thereof” (Jiuzhitang Co., Ltd., priority 2017, dated 2025).

In data set [1] the test system is human-controlled plasma. As to the kind of experiment: Anticoagulant activity assay: PT clotting time. The format is biochemical. Put shortly: (§1)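 Compounds in Tris-HCl buffer were serially diluted, and 10 μL was added to 90 μL human control plasma. PT and APTT clotting times were measured on an MC-4000 coagulometer following kit instructions.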
For data set [2], the target named is T1, intrinsic factor Xase (Homo sapiens, UniProt P00740).
T1 construct: 60 nM FIXa; purchased
T1 sequence (P00740 47-191 limits assumed): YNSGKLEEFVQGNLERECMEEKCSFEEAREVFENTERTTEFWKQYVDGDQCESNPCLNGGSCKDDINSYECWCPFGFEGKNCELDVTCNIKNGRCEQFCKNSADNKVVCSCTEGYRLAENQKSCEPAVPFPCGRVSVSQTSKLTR
T1 sequence (P00740 227-461 limits assumed): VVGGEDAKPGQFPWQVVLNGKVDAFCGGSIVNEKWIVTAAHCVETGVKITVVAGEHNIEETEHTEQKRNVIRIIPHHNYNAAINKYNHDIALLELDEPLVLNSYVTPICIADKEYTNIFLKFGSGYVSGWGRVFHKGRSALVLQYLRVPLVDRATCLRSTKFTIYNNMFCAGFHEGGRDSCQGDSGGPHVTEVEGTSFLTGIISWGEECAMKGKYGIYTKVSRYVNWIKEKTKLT
Kind of data set: Xase inhibitory activity assay. The format is biochemical. The settings on record: read-out: Drug concentration required to inhibit 50% of coagulation factor activity (IC50, ng/mL) Xase (converted). Put shortly: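 Reagents mixed at 37 °C: compound with FVIII (2 IU/ml) and FIXa reagent (60 nM, with FIIa, PC/PS, Ca2+) for 2 min, then FX reagent (50 nM, with thrombin inhibitor) for 1 min, then chromogenic substrate SXa-11. OD405 slope over 7.5 min, relative to buffer control as 100%; IC50 from Hill-equation fit.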

For data set [3], the target named is T2, FIIa (Homo sapiens).
T2 construct: antithrombin (i.e., active coagulation factor IIa); purchased
As to the kind of experiment: AT-dependent IIa inhibitory activity assay. The format is biochemical. The settings on record: in presence of AT; read-out: Drug concentration required to inhibit 50% of coagulation factor activity (IC50, ng/mL) Ha (AT). The method in brief:
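Sample preincubated with 1 IU/mL antithrombin 2 min at 37 °C, then 24 IU/mL FIIa 2 min, then 1.25 mM chromogenic substrate CS-01 (stock concentrations). OD405 rate relative to buffer control gave residual activity; IC50 from Hill-equation fit.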
T2 sequence (P01008 33-464): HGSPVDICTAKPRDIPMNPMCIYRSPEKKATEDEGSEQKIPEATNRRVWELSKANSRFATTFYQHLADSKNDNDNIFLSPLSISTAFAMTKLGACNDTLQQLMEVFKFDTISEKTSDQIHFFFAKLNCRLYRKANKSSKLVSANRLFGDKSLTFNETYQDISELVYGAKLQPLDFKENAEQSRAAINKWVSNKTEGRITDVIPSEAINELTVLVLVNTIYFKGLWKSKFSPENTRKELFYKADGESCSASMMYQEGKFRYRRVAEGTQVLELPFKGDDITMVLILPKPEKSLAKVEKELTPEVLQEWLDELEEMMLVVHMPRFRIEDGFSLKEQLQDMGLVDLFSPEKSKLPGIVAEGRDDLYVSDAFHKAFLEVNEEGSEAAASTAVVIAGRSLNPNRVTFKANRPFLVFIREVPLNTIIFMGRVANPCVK

The test system of data set [4] is plasma. Kind of data set: TT (thrombin time) clotting time. It is filed as biochemical.
Data set [5] deals with human-controlled plasma. Kind of data set: Anticoagulant activity assay: APTT clotting time. It is filed as biochemical. Put shortly:
as §1

In data set [6] the target is T3, FIIa (Homo sapiens).
T3 construct: antithrombin (i.e., active coagulation factor IIa)
As to the kind of experiment: HC-II-dependent IIa inhibitory activity assay. The settings on record: in presence of HC-II; read-out: Drug concentration required to inhibit 50% of coagulation factor activity (IC50, ng/mL) Ha (HC-II) (converted). It is filed as biochemical. How it is done:
HC-II-dependent IIa inhibitory activity assay: 30 μL of sample, control solution or Tris-HCl buffer (negative control) was added, 30 μL of 1 μM HCII solution was added, and incubated at 37° C. for 2 min; and then 30 μL of 20 NIH/mL FIIa was added, and incubated at 37° C. for 1 min; and finally 30 μL of pre-warmed 4.5 mM FIIa chromogenic substrate CS-01 (38) was added. OD405 was detected by a microplate reader and the IC50 value of FIIa inhibition of each sample was calculated.
Data processing: The average value of OD405 detected by the duplicated well was used as the detection value of the test sample and the reference of each concentration, and the slope of the linear fit between the detected value to the time value (the change rate of the absorbance value OD405/min) indicated enzymatic activity of coagulation factor. Taking the clotting factor activity of the negative control well as 100%, coagulation factor activity (percentage) in the presence of the test sample was calculated. The coagulation factor activity in the presence of the test sample was plotted against the concentration of the test sample, and fitted according to the following formula, to calculate the IC50 value: B=(IC50)^n/{(IC50)^n+[I]^n} […]
T3 sequence (P05546 20-499): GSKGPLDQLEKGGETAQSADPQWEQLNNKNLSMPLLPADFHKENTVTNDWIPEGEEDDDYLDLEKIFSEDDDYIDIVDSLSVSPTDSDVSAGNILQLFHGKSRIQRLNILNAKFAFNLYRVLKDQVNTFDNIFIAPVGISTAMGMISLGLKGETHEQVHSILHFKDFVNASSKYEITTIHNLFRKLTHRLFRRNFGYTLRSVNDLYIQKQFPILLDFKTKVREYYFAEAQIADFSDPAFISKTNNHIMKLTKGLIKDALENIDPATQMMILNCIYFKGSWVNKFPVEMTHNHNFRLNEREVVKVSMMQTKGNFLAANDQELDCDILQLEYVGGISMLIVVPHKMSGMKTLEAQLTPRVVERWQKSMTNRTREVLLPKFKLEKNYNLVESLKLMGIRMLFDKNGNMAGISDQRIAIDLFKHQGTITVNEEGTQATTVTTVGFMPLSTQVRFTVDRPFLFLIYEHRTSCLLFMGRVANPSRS

The target in data set [7] is T4, FXa (Homo sapiens).
T4 construct: 8 μg/mL FXa solution; purchased
T4 sequence (P01008 33-464): as the sequence (P01008 33-464) above
Kind of data set: AT-dependent Xa inhibitory activity assay. It is filed as biochemical. To be noted: in presence of AT; read-out: Drug concentration required to inhibit 50% of coagulation factor activity (IC50, ng/mL) Xa (AT). The method in brief: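 Sample preincubated 1 min at 37 °C with antithrombin (1 IU/mL solution), then FXa (8 µg/mL solution) 1 min, then chromogenic substrate SXa-11 (1.25 mM solution). Rate of OD405 change gives residual FXa activity relative to buffer control; duplicates, IC50 fitted with a Hill equation.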

Data set [8] concerns mouse tail bleeding. As to the kind of experiment: Bleeding tendency detection (tail-clipping method). The format is in vivo. To be noted: mice, sc., high dose of equal multiple of the equivalent antithrombotic dose, vs LMWH. How it is done: Grouping and administration: Mice were randomly divided into 10 groups with 8 animals in each group. The experimental groups and the dose of the animals in each group were (1) natural saline (NS) control group; (2) LMWH 4.0 mg/kg group; (2) LMWH 20 mg/kg group; (3) LMWH 100 mg/Kg group; (4) A2 5 mg/kg group; (5) A2 25 mg/kg group; (6) A2 125 mg/kg group; (7) D1 5 mg/kg group; (8) D1 25 mg/Kg group; (10) D1 125 mg/kg group. The […] in each group were administered subcutaneously (sc.) into the back, and the dose volume was 10 mL/kg.
After 60 min of subcutaneous administration in each experimental group, the mice were placed in a mouse holder, and the tail tip was cut by 5 mm by tail-clipping method, and the mouse tail was immersed in 40 mL of purified water (37° C.) in the beaker. […] At 60 min, the beaker was placed for 60 min and then the absorbance of the solution (OD540) was detected by a UV spectrophotometer.
In addition, whole blood of healthy mice was taken, and the whole blood of different volumes of mice was added to 40 mL of purified water, stirred uniformly and allowed to stand for 60 min. The absorbance (OD540) of the solution was detected by the same method and the volume-absorbance curve was plotted and used as the standard curve for calculating the amount of bleeding. The amount of bleeding in each experimental group was calculated by the standard curve. […]

Data set [9] relates to inferior vena cava thrombosis. Kind of data set: Anti-venous thrombosis experiment (rabbit brain powder infusion plus ligation). To be noted: rats, sc., experimental dose (2.5, 5.0, 10 mg/kg). The format is in vivo, SD rats. How it is done:
Grouping and Administration: Rats were randomly divided into 8 groups with 8 animals in each group. The experimental groups and the dose of the animals in each group were (1) natural saline (NS) control group; (2) LMWH 4.0 mg/kg group; (3) A2 2.5 mg/kg group; (4) A2 group 5.0 mg/kg; (5) A2 10 mg/kg group; (6) D1 2.5 mg/kg group; (7) D1 5.0 mg/kg group; (8) D1 10 mg/kg group. The rats in each group were administered subcutaneously (sc.) into the back, and the administration volume was 1 mL/kg. The modeling experiment was performed 1 hour after administration. A New Zealand rabbit was sacrificed, and the rabbit brain was taken out immediately. Rabbit brain powder infusion was prepared according to the literature method (Thromb Haemost, 2010, 103(5): 994-1004), and stored at −20° C. for use. […] The femoral vein was injected with 2% rabbit brain powder infusion (1 mL/kg). After 20 seconds, the lower margin of the left renal vein was ligated. After the operation, the viscera was placed back into the abdominal cavity and covered with medical gauze (infiltrated with natural saline). […] The length of the thrombus was measured, and the wet weight of the thrombus was weighed and then dry weight was weighed after drying at 50° C. for 24 h. The SPSS software was used to organize and analyze the data, and the measurement data were expressed as mean±standard deviation (x±s). […]

SMILES strings stand for the structures.

In the case of `CC(=O)N[C@H]1[C@H](O[C@@H]([C@H](O[C@@H]2O[C@@H](C)[C@@H](OS(=O)(=O)O)[C@@H](OS(=O)(=O)O)[C@@H]2O)[C@@H](O)CO)[C@H](O)C(=O)O)O[C@H](COS(=O)(=O)O)[C@H](OS(=O)(=O)O)[C@@H]1O[C@@H]1OC(C(=O)O)=C[C@H](O[C@@H]2O[C@@H](C)[C@@H](OS(=O)(=O)O)[C@@H](OS(=O)(=O)O)[C@@H]2O)[C@H]1O` [Compound B1, L-Fuc3S4S-(α1,3)-L-ΔUA-(α1,3)-{D-GalNAc4S6S-(β1,4)-[L-Fuc3S4S-(α1,3)]-D-GlcA-(β1,3)}˜-D-GalNAc4S6S-(β1,4)-[L-Fuc3S4S-(α1,3)]-D-GlcA-ol], the “Drug concentration required for multiplication of coagulation time (μg/mL) PT” value in [1] is recorded as “# (>128 μg/mL)”. The IC50 was 639 nM in data set [2], > 3760 nM in [3], 530 nM in data set [6] and > 3760 nM in data set [7]. Besides, the “Drug concentration required for multiplication of coagulation time (μg/mL) TT” value in data set [4] is on record as “# (>128 μg/mL)”. The “Drug concentration required for multiplication of coagulation time (μg/mL) APTT” value in [5] turned out to be 53.9 µg/mL.
Consider `CC(=O)NC(CO)C(OC1OC(C(=O)O)C(OC2OC(COS(=O)(=O)O)C(OS(=O)(=O)O)C(OC3OC(C(=O)O)C(OC4OC(COS(=O)(=O)O)C(OS(=O)(=O)O)C(OC5OC(C(=O)O)=CC(OC6OC(C)C(OS(=O)(=O)O)C(O)C6OS(=O)(=O)O)C5O)C4NC(C)=O)C(OC4OC(C)C(OS(=O)(=O)O)C(O)C4OS(=O)(=O)O)C3O)C2NC(C)=O)C(OC2OC(C)C(OS(=O)(=O)O)C(O)C2OS(=O)(=O)O)C1O)C(OS(=O)(=O)O)C(O)COS(=O)(=O)O` [Compound A2, L-Fuc2S4S-(α1,3)-ΔUA-(α1,3)-{D-GaNAc4S6S-(β1,4)-[L-Fuc2S4S-(α1,3)]-D-GlcA-(β1,3)}n+1-D-GalNAc4S6S-ol], for which the “Drug concentration required for multiplication of coagulation time (μg/mL) PT” value in data set [1] is “# (>128 μg/mL)”. In addition, the figures for the IC50 in data set [2], in data set [3] and in data set [7] were 23.8 nM, > 1970 nM and > 1970 nM, respectively. Besides, the “Drug concentration required for multiplication of coagulation time (μg/mL) TT” value in data set [4] is given as “# (>128 μg/mL)”. The “Drug concentration required for multiplication of coagulation time (μg/mL) APTT” value in [5] was 7.2 µg/mL. The amount of bleeding entry in data set [8] is listed as “significantly lower than that in LMWH administration group”. Also, the antithrombotic activity entry in data set [9] is recorded as “significant antithrombotic activity”.
